Results from US20050107432A1, “Sigma receptor binder containing indanone derivative” (priority 2002, published 2005).
pIC50: −log10 of the molar value. Where a name gives a salt, the structure may show the parent alone.

These molecules were tested against Sigma receptor (assay: Sigma receptor binding assay (3H-DTG, guinea pig brain crude membrane fraction)). Settings: inhibition of 3H-DTG binding to guinea pig brain crude membrane fraction, 25° C., 1 hour.
Method: Sigma Receptor Binding Assay
(1) Preparation of Receptor
Ten male guinea pigs (Crj, Hartley, from Charles River Japan, Inc.) (body weight: 234 g to 260 g) were decapitated, exsanguinated and died. The brain was immediately removed, homogenized with ten volumes of 50 mM Tris-HCl (pH 7.4) using a Teflon homogenizer and was centrifuged at a rate of 50000× g at 4° C. for 20 minutes. The washing procedure was repeated once more under the same conditions, and the resulting crude membrane fraction was subjected to the assay.
The filter paper was transferred to a vial for radioactivity measurement, mixed with 5 mL of a liquid scintillation cocktail (Atomlight, from PACKARD), and the radioactivity on the filter was determined by a liquid scintillation counter (Model 1500, from PACKARD) for 2 minutes. The specific binding and the non-specific binding in the absence of the test compound were determined in the same way as above except for using 50% DMSO solution instead of the test compound and using a 100 μM Haloperidol solution instead of the test compound, respectively.
(3) Determination of Inhibition
The inhibitions of the test compound at individual concentrations were determined from the ratio of the specific binding in the presence of the test compound to the specific binding in the absence thereof. The dose-response curve was regressed according to a logit-log model in which the ratio of the specific binding in the presence of the test compound to the specific binding in the absence thereof was subjected to logit transformation and plotted against the common logarithm value of each concentration.

Structure (SMILES) | pIC50
CCOc1cc2c(cc1OCC)C(=O)C(CC1CCN(Cc3ccc(Cl)cc3)CC1)C2 (stereo not shown) [Example 13, 1-(4-chlorobenzyl)-4-[(5,6-diethoxy-1-indanon)-2-yl]methylpiperidine hydrochloride] | 8.80
O=C1c2ccc(C3CCCCC3)cc2CC1CC1CCN(Cc2ccccc2)CC1 (stereo not shown) [Example 22, hydrochloride] | 8.89
Cl.O=C1c2ccccc2CC1CC1CCN(Cc2ccccc2)CC1 (stereo not shown) [Example 27, 1-Benzyl-4-[(1-indanon)-2-yl]methylpiperidine hydrochloride] | 8.77
COc1ccc2c(c1)CC(CC1CCN(Cc3ccccc3)CC1)C2=O.Cl (stereo not shown) [Example 28, 1-Benzyl-4-[(5-methoxy-1-indanon)-2-yl]methylpiperidine hydrochloride] | 8.64
CCOc1cc2c(cc1OCC)C(=O)C(CC1CCN(Cc3ccccc3)CC1)C2.Cl (stereo not shown) [Example 30, 1-Benzyl-4-[(5,6-diethoxy-1-indanon)-2-yl]methylpiperidine hydrochloride] | 8.43
COc1cc2c(cc1OC)C(=O)C(CCCC1CCN(Cc3ccccc3)CC1)C2.Cl (stereo not shown) [Example 33, 1-Benzyl-4-[3-[(5,6-dimethoxy-1-indanon)-2-yl]propyl]piperidine hydrochloride] | 8.12
CCOc1cc2c(cc1OCC)C(=O)C(F)(CC1CCN(Cc3cccc(F)c3)CC1)C2 (stereo not shown) [Example 41, 1-(3-fluorobenzyl)-4-[(5,6-diethoxy-2-fluoro-1-indanon)-2-yl]methylpiperidine hydrochloride] | 8.52
CCOc1cc2c(cc1OCC)C(=O)C(F)(CC1CCN(Cc3ccccc3Cl)CC1)C2 (stereo not shown) [Example 43, 1-(2-chlorobenzyl)-4-[(5,6-diethoxy-2-fluoro-1-indanon)-2-yl]methylpiperidine hydrochloride] | 8.82
CCOc1cc2c(cc1OCC)C(=O)C(F)(CC1CCN(Cc3ccc(C)cc3)CC1)C2 (stereo not shown) [Example 48, 1-(4-methylbenzyl)-4-[(5,6-diethoxy-2-fluoro-1-indanon)-2-yl]methylpiperidine hydrochloride] | 8.55
CCOc1cc2c(cc1OCC)C(=O)C(F)(CC1CCN(CC3CCCCCC3)CC1)C2 (stereo not shown) [Example 51, 1-cycloheptylmethyl-4-[(5,6-diethoxy-2-fluoro-1-indanon)-2-yl]methylpiperidine hydrochloride] | 8.96
CCOc1cc2c(cc1OCC)C(=O)C(F)(CC1CCN(CC3CCCCCCC3)CC1)C2 (stereo not shown) [Example 52, 1-cyclooctylmethyl-4-[(5,6-diethoxy-2-fluoro-1-indanon)-2-yl]methylpiperidine hydrochloride] | 8.96
CCCOc1cc2c(cc1OCCC)C(=O)C(F)(CC1CCN(Cc3ccccc3)CC1)C2.Cl (stereo not shown) [Example 58, 1-Benzyl-4-[[5,6-di(1-propyloxy)-2-fluoro-1-indanon]-2-yl]methylpiperidine hydrochloride] | 8.89

Same assay, conditions: result in words, no value given

Structure (SMILES) | sigma receptor binding action
COc1cc2c(cc1OC)C(=O)C(=CC1CCN(Cc3ccccc3)CC1)C2.Cl [Example 25, 1-Benzyl-4-[(5,6-dimethoxy-1-indanon)-2-ylidene]methylpiperidine hydrochloride] | found to have a sigma receptor binding action
CCOc1cc2c(cc1OCC)C(=O)C(=CC1CCN(Cc3ccccc3)CC1)C2.Cl [Example 26, 1-Benzyl-4-[(5,6-diethoxy-1-indanon)-2-ylidene]methylpiperidine hydrochloride] | found to have a sigma receptor binding action
Cl.O=C1c2ccccc2CC1CC1CCN(Cc2ccccc2)CC1 (stereo not shown) [Example 27, 1-Benzyl-4-[(1-indanon)-2-yl]methylpiperidine hydrochloride] | found to have a sigma receptor binding action
COc1ccc2c(c1)CC(CC1CCN(Cc3ccccc3)CC1)C2=O.Cl (stereo not shown) [Example 28, 1-Benzyl-4-[(5-methoxy-1-indanon)-2-yl]methylpiperidine hydrochloride] | found to have a sigma receptor binding action
CCOc1cc2c(cc1OC)C(=O)C(CC1CCN(Cc3ccccc3)CC1)C2.Cl (stereo not shown) [Example 29, 1-Benzyl-4-[(5-ethoxy-6-methoxy-1-indanon)-2-yl]methylpiperidine hydrochloride] | found to have a sigma receptor binding action
CCOc1cc2c(cc1OCC)C(=O)C(CC1CCN(Cc3ccccc3)CC1)C2.Cl (stereo not shown) [Example 30, 1-Benzyl-4-[(5,6-diethoxy-1-indanon)-2-yl]methylpiperidine hydrochloride] | found to have a sigma receptor binding action
CCCOc1cc2c(cc1OCCC)C(=O)C(CC1CCN(Cc3ccccc3)CC1)C2.Cl (stereo not shown) [Example 31, 1-Benzyl-4-[[5,6-di(1-propyloxy)-1-indanon)-2-yl]methylpiperidine hydrochloride] | found to have a sigma receptor binding action
COc1cc2c(cc1OC)C(=O)C(CCC1CCN(Cc3ccccc3)CC1)C2.Cl (stereo not shown) [Example 32, 1-Benzyl-4-[2-[(5,6-dimethoxy-1-indanon)-2-yl]ethyl]piperidine hydrochloride] | found to have a sigma receptor binding action
COc1cc2c(cc1OC)C(=O)C(CCCC1CCN(Cc3ccccc3)CC1)C2.Cl (stereo not shown) [Example 33, 1-Benzyl-4-[3-[(5,6-dimethoxy-1-indanon)-2-yl]propyl]piperidine hydrochloride] | found to have a sigma receptor binding action
COc1cc2c(cc1OC)C(=O)C(CC1CCN(Cc3cccc(F)c3)CC1)C2.Cl (stereo not shown) [Example 34, 1-(3-Fluorobenzyl)-4-[(5,6-dimethoxy-1-indanon)-2-yl]methylpiperidine hydrochloride] | found to have a sigma receptor binding action
COc1cc2c(cc1OC)C(=O)C(CC1CCN(Cc3cccc(C)c3)CC1)C2.Cl (stereo not shown) [Example 35, 1-(3-Methylbenzyl)-4-[(5,6-dimethoxy-1-indanon)-2-yl]methylpiperidine hydrochloride] | found to have a sigma receptor binding action
COc1cc2c(cc1OC)C(=O)C(CC1CCN(CC3CCCCC3)CC1)C2.Cl (stereo not shown) [Example 36, 1-Cyclohexylmethyl-4-[(5,6-dimethoxy-1-indanon)-2-yl]methylpiperidine hydrochloride] | found to have a sigma receptor binding action
Cl.O=C1c2ccccc2CC1(F)CC1CCN(Cc2ccccc2)CC1 (stereo not shown) [Example 54, 1-Benzyl-4-[(2-fluoro-1-indanon)-2-yl]methylpiperidine hydrochloride] | found to have a sigma receptor binding action
COc1ccc2c(c1)CC(F)(CC1CCN(Cc3ccccc3)CC1)C2=O.Cl (stereo not shown) [Example 55, 1-Benzyl-4-[(5-methoxy-2-fluoro-1-indanon)-2-yl]methylpiperidine hydrochloride] | found to have a sigma receptor binding action
COc1cc2c(cc1OC)C(=O)C(F)(CC1CCN(Cc3ccccc3)CC1)C2.Cl (stereo not shown) [Example 56, 1-Benzyl-4-[(5,6-dimethoxy-2-fluoro-1-indanon)-2-yl]methylpiperidine hydrochloride] | found to have a sigma receptor binding action
CCOc1cc2c(cc1OCC)C(=O)C(F)(CC1CCN(Cc3ccccc3)CC1)C2.Cl (stereo not shown) [Example 57, 1-Benzyl-4-[(5,6-diethoxy-2-fluoro-1-indanon)-2-yl]methylpiperidine hydrochloride] | found to have a sigma receptor binding action
CCCOc1cc2c(cc1OCCC)C(=O)C(F)(CC1CCN(Cc3ccccc3)CC1)C2.Cl (stereo not shown) [Example 58, 1-Benzyl-4-[[5,6-di(1-propyloxy)-2-fluoro-1-indanon]-2-yl]methylpiperidine hydrochloride] | found to have a sigma receptor binding action
COc1cc2c(cc1OC)C(=O)C(F)(C1CCN(Cc3ccccc3)CC1)C2.Cl (stereo not shown) [Example 59, 1-Benzyl-4-[(5,6-dimethoxy-2-fluoro-1-indanon)-2-yl]piperidine] | found to have a sigma receptor binding action
COc1cc2c(cc1OC)C(=O)C(F)(CCC1CCN(Cc3ccccc3)CC1)C2 (stereo not shown) [Example 60, 1-Benzyl-4-[2-[(5,6-dimethoxy-2-fluoro-1-indanon)-2-yl]ethyl]piperidine] | found to have a sigma receptor binding action
COc1cc2c(cc1OC)C(=O)C(F)(CCCC1CCN(Cc3ccccc3)CC1)C2.Cl (stereo not shown) [Example 61, 1-Benzyl-4-[3-[(5,6-dimethoxy-2-fluoro-1-indanon)-2-yl]propyl]piperidinepiperidine hydrochloride] | found to have a sigma receptor binding action
COc1cc2c(cc1OC)C(=O)C(F)(CC1CCN(Cc3ccccc3F)CC1)C2.Cl (stereo not shown) [Example 62, 1-(2-Fluorobenzyl)-4-[(5,6-dimethoxy-2-fluoro-1-indanon)-2-yl]methylpiperidine hydrochloride] | found to have a sigma receptor binding action
COc1cc2c(cc1OC)C(=O)C(F)(CC1CCN(Cc3cccc(F)c3)CC1)C2.Cl (stereo not shown) [Example 63, 1-(3-Fluorobenzyl)-4-[(5,6-dimethoxy-2-fluoro-1-indanon)-2-yl]methylpiperidine hydrochloride] | found to have a sigma receptor binding action
COc1cc2c(cc1OC)C(=O)C(F)(CC1CCN(Cc3ccc(F)cc3)CC1)C2.Cl (stereo not shown) [Example 64, 1-(4-Fluorobenzyl)-4-[(5,6-dimethoxy-2-fluoro-1-indanon)-2-yl]methylpiperidine hydrochloride] | found to have a sigma receptor binding action
COc1cc2c(cc1OC)C(=O)C(F)(CC1CCN(Cc3cccc(C)c3)CC1)C2.Cl (stereo not shown) [Example 65, 1-(3-Methylbenzyl)-4-[(5,6-dimethoxy-2-fluoro-1-indanon)-2-yl]methylpiperidine hydrochloride] | found to have a sigma receptor binding action
COc1cc2c(cc1OC)C(=O)C(F)(CC1CCN(CC3CCCCC3)CC1)C2.Cl (stereo not shown) [Example 66, 1-Cyclohexylmethyl-4-[(5,6-dimethoxy-2-fluoro-1-indanon)-2-yl]methylpiperidine hydrochloride] | found to have a sigma receptor binding action
